The target of the assay is T1, GlyT1 transporter (Homo sapiens, UniProt P48067).
T1 construct: endogenously expressing the GlyT1 transporter; host or cells: SK-N-MC human neuroblastoma cells
T1 sequence (P48067 1-706): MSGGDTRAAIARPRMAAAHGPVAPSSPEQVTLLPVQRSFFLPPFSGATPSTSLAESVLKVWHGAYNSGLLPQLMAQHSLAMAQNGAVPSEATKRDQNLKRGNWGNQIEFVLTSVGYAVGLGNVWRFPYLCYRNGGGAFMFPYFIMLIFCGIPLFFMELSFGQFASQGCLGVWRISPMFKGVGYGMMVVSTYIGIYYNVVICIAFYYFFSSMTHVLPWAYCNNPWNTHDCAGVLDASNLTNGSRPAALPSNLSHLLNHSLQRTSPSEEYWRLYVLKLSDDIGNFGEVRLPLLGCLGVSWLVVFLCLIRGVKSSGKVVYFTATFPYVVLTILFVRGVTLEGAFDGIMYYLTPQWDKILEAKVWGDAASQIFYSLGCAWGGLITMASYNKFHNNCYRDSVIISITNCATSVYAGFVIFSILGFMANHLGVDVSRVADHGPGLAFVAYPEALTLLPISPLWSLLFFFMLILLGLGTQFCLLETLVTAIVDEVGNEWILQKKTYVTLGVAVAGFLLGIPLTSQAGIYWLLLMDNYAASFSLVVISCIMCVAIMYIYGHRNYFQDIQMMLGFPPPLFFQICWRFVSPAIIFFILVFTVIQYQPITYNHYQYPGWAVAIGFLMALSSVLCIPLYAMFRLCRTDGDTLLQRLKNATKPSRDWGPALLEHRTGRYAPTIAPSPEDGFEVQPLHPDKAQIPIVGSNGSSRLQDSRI
Put plainly: GlyT1 assay: 3H-glycine uptake into SK-N-MC cells (Cytostar-T format). It is filed as cell-based. To be noted: glycine uptake in human SK-N-MC cells endogenously expressing GlyT1; 500 nM glycine, 1% DMSO, signal recorded over 60 min. The source says:
Cells expressing either endogenously the GlyT1 transporter like JAR cells (human placental choriocarcinoma cells; e.g. WO 2008/002583) or SK-N-MC cells (human neuroblastoma cells; Depoortere et al., 2005. Neuropsychopharmacology 30:1963-1985) or primary neurons or cells which have been transfected with a plasmid encoding the cDNA of a functional GlyT1 transporter and stably or transiently express GlyT1 (e.g. WO 2006/08200) can be used to monitor glycine uptake in cells. Different protocols for determination of the glycine uptake into the cells described above can be applied in order to identify and rank compounds which interfere with glycine uptake in the selected cell.
Compounds outlined in the examples below were characterized using human SK-N-MC cells (ATCC number HTB-10) endogenously expressing the GlyT1 transporter which is responsible for the uptake of glycine into these cells and the uptake of glycine into these cells is monitored using the Cytostar-T assay format (GE Healthcare, RPNQ0162) which is based on the radioactive glycine taken up by the cells and brought into proximity with the scintillant contained within the base of the plate. The radioactive decay is converted to a light signal based on the integration of the scintillation matrix into the assay plate. The uptake is recorded as kinetic and the slope of the measured counts over time is used to calculate IC50.
In detail, SK-N-MC cells are seeded into 96-well Cytostar-T assay plates at a density of 200,000 cells/well and grown for 16-18 hours to confluence in growth medium as recommended by ATCC. Before starting the assay, cells are washed once with HBSS (Hank's buffered salt solution; Sigma, H8264) cont. 5 mM alanine (referred in here as HBSS/Ala) and afterwards the following reagents are added: • 1. 80 μl/well HBSS/Ala • 2. 20 μl/well of HBSS/Ala containing 6× the concentration of compound in 6% DMSO • 3. approx. 5-10 min incubation • 4. 20 μl/well 3 μM glycine (^3H-glycine (Perkin Elmer, NET004001MC, specific activity: 52 Ci/mmol; diluted 1:1 with unlabelled glycine) in HBSS/Ala.
In the final assay, glycine concentration is 500 nM (250 nM derived from the ^3H-glycine Perkin Elmer, 250 nM unlabelled glycine), DMSO concentration is 1%.
The assay plate is immediately after addition of the ^3H-glycine placed into a Micro-Beta Counter (Perkin Elmer) and the signal is recorded over 60 min.
To calculate uptake, the slope in the linear range of the kinetics is determined using GraphPadPrism and for the different slopes at the selected concentrations IC50 are calculated by curve fitting using the software GraphPadPrism.
Maximal glycine uptake in every experiment is determined by incubation of SK-N-MC cells with substrate but without inhibitor. Unspecific uptake of glycine by the cells is determined by incubating the cells with substrate and a reference GlyT1 inhibitor e.g. 10 μM RG-1678 (Pinard et al., 2010, J. Med. Chem. 53(12):4603-14).
Compounds are diluted from 10 mM stocks and in general, for IC50 determination 8 compound concentrations are used.
In the case of `C[C@H](Oc1ccc(S(C)(=O)=O)cc1C(=O)N1CC2CC2(c2noc(C(F)(F)F)n2)C1)C(F)(F)F` (mixture of isomers) [Example 1, [5-Methanesulfonyl-2-(2,2,2-trifluoro-1-methyl-ethoxy)-phenyl]-[1-(5-trifluoromethyl-[1,2,4]oxadiazol-3-yl)-3-aza-bicyclo[3.1.0]hex-3-yl]-methanone], inhibition was half-maximal at 39 nM (IC50).
As for `Cc1nc(C23CC2CN(C(=O)c2cc(S(C)(=O)=O)ccc2O[C@@H](C)C(F)(F)F)C3)no1` (mixture of isomers) [Example 6, [5-Methanesulfonyl-2-(2,2,2-trifluoro-1-methyl-ethoxy)-phenyl]-[1-(5-methyl-[1,2,4]oxadiazol-3-yl)-3-aza-bicyclo[3.1.0]hex-3-yl]-methanone], the IC50 was found to be 16.5 nM. This IC50 lies about 2.4-fold lower than the previous one.
To `C[C@H](Oc1ccc(S(C)(=O)=O)cc1C(=O)N1CC2CC2(c2noc(C3CC3)n2)C1)C(F)(F)F` (mixture of isomers) [Example 9, [1-(5-Cyclopropyl-[1,2,4]oxadiazol-3-yl)-3-aza-bicyclo[3.1.0]hex-3-yl]-[5-methanesulfonyl-2-(2,2,2-trifluoro-1-methyl-ethoxy)-phenyl]-methanone] belongs 18 nM; to `C[C@H](Oc1ccc(S(C)(=O)=O)cc1C(=O)N1CC2CC2(c2noc(C(C)(C)C(F)(F)F)n2)C1)C(F)(F)F` (mixture of isomers) [Example 12, [5-Methanesulfonyl-2-(2,2,2-trifluoro-1-methyl-ethoxy)-phenyl]-{1-[5-(2,2,2-trifluoro-1,1-dimethyl-ethyl)-[1,2,4]oxadiazol-3-yl]-3-aza-bicyclo[3.1.0]hex-3-yl}-methanone], 18 nM; to `C[C@H](Oc1ccc(S(C)(=O)=O)cc1C(=O)N1CC2CC2(c2noc(C3CC(F)(F)C3)n2)C1)C(F)(F)F` (mixture of isomers) [Example 13, {1-[5-(3,3-Difluoro-cyclobutyl)-[1,2,4]oxadiazol-3-yl]-3-aza-bicyclo[3.1.0]hex-3-yl}-[5-methanesulfonyl-2-(2,2,2-trifluoro-1-methyl-ethoxy)-phenyl]-methanone], 9 nM.
In turn, `C[C@H](Oc1ccc(S(C)(=O)=O)cc1C(=O)N1CC2CC2(c2ncccn2)C1)C(F)(F)F` (mixture of isomers) [Example 14, [5-Methanesulfonyl-2-(2,2,2-trifluoro-1-methyl-ethoxy)-phenyl]-(1-pyrimidin-2-yl-3-aza-bicyclo[3.1.0]hex-3-yl)-methanone] came in with an IC50 of 67 nM.
To `C[C@H](Oc1ccc(S(C)(=O)=O)cc1C(=O)N1CC2CC2(c2nccc(C(F)(F)F)n2)C1)C(F)(F)F` (mixture of isomers) [Example 15, [5-Methanesulfonyl-2-(2,2,2-trifluoro-1-methyl-ethoxy)-phenyl]-[1-(4-trifluoromethyl-pyrimidin-2-yl)-3-aza-bicyclo[3.1.0]hex-3-yl]-methanone] belongs 14 nM.
Compound `C[C@H](Oc1ccc(S(C)(=O)=O)cc1C(=O)N1CC2CC2(c2ncco2)C1)C(F)(F)F` (mixture of isomers) [Example 20, [5-Methanesulfonyl-2-(2,2,2-trifluoro-1-methyl-ethoxy)-phenyl]-(1-oxazol-2-yl-3-aza-bicyclo[3.1.0]hex-3-yl)-methanone] displayed an IC50 of 101 nM.
In turn, `Cc1cnc(C23CC2CN(C(=O)c2cc(S(C)(=O)=O)ccc2O[C@@H](C)C(F)(F)F)C3)o1` (mixture of isomers) [Example 21, [5-Methanesulfonyl-2-(2,2,2-trifluoro-1-methyl-ethoxy)-phenyl]-[1-(5-methyl-oxazol-2-yl)-3-aza-bicyclo[3.1.0]hex-3-yl]-methanone] came in with an IC50 of 21 nM.
To `C[C@H](Oc1ccc(S(C)(=O)=O)cc1C(=O)N1CC2CC2(c2cn3ccccc3n2)C1)C(F)(F)F` (mixture of isomers) [Example 24, (1-Imidazo[1,2-a]pyridin-2-yl-3-aza-bicyclo[3.1.0]hex-3-yl)-[5-methanesulfonyl-2-(2,2,2-trifluoro-1-methyl-1-ethoxy)-phenyl]-methanone] belongs 911 nM; to `Cc1nc(C23CC2CN(C(=O)c2cc(S(C)(=O)=O)ccc2O[C@@H](C)C(F)(F)F)C3)cs1` (mixture of isomers) [Example 25, [5-Methanesulfonyl-2-(2,2,2-trifluoro-1-methyl-ethoxy)-phenyl]-[1-(2-methyl-thiazol-4-yl)-3-aza-bicyclo[3.1.0]hex-3-yl]-methanone], 22 nM.
`C[C@H](Oc1ccc(S(C)(=O)=O)cc1C(=O)N1CC2CC2(c2csc(C(F)(F)F)n2)C1)C(F)(F)F` (mixture of isomers) [Example 26, [5-Methanesulfonyl-2-(2,2,2-trifluoro-1-methyl-ethoxy)-phenyl]-[1-(2-trifluoromethyl-thiazol-4-yl)-3-aza-bicyclo[3.1.0]hex-3-yl]-methanone] returned a half-maximal inhibitory concentration (IC50) of 8 nM. Against the preceding compound, the IC50 is about 2.8-fold lower.
As for `C[C@@H](Oc1ccc(S(C)(=O)=O)cc1C(=O)N1CC2CC2(c2csc(C(F)(F)F)n2)C1)C(F)(F)F` (mixture of isomers) [Example 29, [5-Methanesulfonyl-2-(2,2,2-trifluoro-1-methyl-ethoxy)-phenyl]-[1-(2-trifluoromethyl-thiazol-4-yl)-3-aza-bicyclo[3.1.0]hex-3-yl]-methanone], the figure is 11 nM; as for `Cc1nc(C23CC2CN(C(=O)c2cc(S(C)(=O)=O)ccc2O[C@@H](C)C(F)(F)F)C3)co1` (mixture of isomers) [Example 32, [5-Methanesulfonyl-2-(2,2,2-trifluoro-1-methyl-ethoxy)-phenyl]-[1-(2-methyl-oxazol-4-yl)-3-aza-bicyclo[3.1.0]hex-3-yl]-methanone], 26 nM.
`Cc1coc(C23CC2CN(C(=O)c2cc(S(C)(=O)=O)ccc2O[C@@H](C)C(F)(F)F)C3)n1` (mixture of isomers) [Example 33, [5-Methanesulfonyl-2-(2,2,2-trifluoro-1-methyl-ethoxy)-phenyl]-[1-(4-methyl-oxazol-2-yl)-3-aza-bicyclo[3.1.0]hex-3-yl]-methanone] displayed an IC50 of 190 nM.
In turn, `Cc1noc(C23CC2CN(C(=O)c2cc(S(C)(=O)=O)ccc2O[C@@H](C)C(F)(F)F)C3)n1` (mixture of isomers) [Example 34, [5-Methanesulfonyl-2-(2,2,2-trifluoro-1-methyl-ethoxy)-phenyl]-[1-(3-methyl-[1,2,4]oxadiazol-5-yl)-3-aza-bicyclo[3.1.0]hex-3-yl]-methanone] showed an IC50 of 98 nM. Compared with the last compound, the IC50 is about 1.9-fold lower.
As for `Cc1noc(C23CC2CN(C(=O)c2cc(S(C)(=O)=O)ccc2O[C@H](C)C(F)(F)F)C3)n1` (mixture of isomers) [Example 35, [5-Methanesulfonyl-2-(2,2,2-trifluoro-1-methyl-ethoxy)-phenyl]-[1-(3-methyl-[1,2,4]oxadiazol-5-yl)-3-aza-bicyclo[3.1.0]hex-3-yl]-methanone], 101 nM corresponded to half-maximal inhibition (IC50).
For the compound `C[C@H](Oc1ccc(S(C)(=O)=O)cc1C(=O)N1CC2CC2(c2nc(C(F)(F)F)no2)C1)C(F)(F)F` (mixture of isomers) [Example 36, [5-Methanesulfonyl-2-(2,2,2-trifluoro-1-methyl-ethoxy)-phenyl]-[1-(3-trifluoromethyl-[1,2,4]oxadiazol-5-yl)-3-aza-bicyclo[3.1.0]hex-3-yl]-methanone], half-maximal inhibition (IC50) was put at 62 nM.

What is called IC50 is the concentration that gives 50% inhibition. Read a low IC50 as higher potency.
